Test results from patent publication US20250197372A1 (priority 2020, published 2025).
Where two headings read alike, the source gives them in different places.

How the values were obtained:
Assay type in all cases: biochemical
[1] = molecular target: recombinant human GAA (acid alpha-glucosidase) (Homo sapiens, UniProt P10253); experiment: Acid alpha-glucosidase (GAA) assay (4-methylumbelliferyl-alpha-D-pyranoside substrate, fluorescence)
Summary of the method: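 IC50 from 4-PL curve fit of percent inhibition, based on fluorescence (365/440 nm) of released methylumbelliferone relative to uninhibited enzyme. Compound dilutions and human GAA incubated 60 min, 37 °C, before 20 min substrate reaction at 37 °C, quenched at pH 10.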

[2] = molecular target: rat sucrase (partially purified alpha-glucosidase from intestinal rat powder) (Rattus norvegicus, UniProt P23739); experiment: Intestinal alpha-glucosidase assay, sucrose substrate (Glucose GO Kit)
Summary of the method: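 First step: 60 min, 37 °C, compound with partially purified rat intestinal alpha-glucosidase. Next, maltose or sucrose for 30 min at 37 °C, ended at 90 °C for 5 min. Glucose quantified enzymatically; concentration–inhibition data fitted 4-PL for IC50.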

[3] = molecular target: T1, recombinant alpha-glucosidase I (human full-length glucosidase I, Glu 1) (Homo sapiens, UniProt Q13724); experiment: Alpha-glucosidase I assay (Amplex Red glucose detection, synthetic trisaccharide substrate)
T1 construct: 6-His (C); made in house; host or cells: HEK-293T cells transduced with BacMam virus (virus raised in Sf9)
T1 sequence (Q13724 1-837): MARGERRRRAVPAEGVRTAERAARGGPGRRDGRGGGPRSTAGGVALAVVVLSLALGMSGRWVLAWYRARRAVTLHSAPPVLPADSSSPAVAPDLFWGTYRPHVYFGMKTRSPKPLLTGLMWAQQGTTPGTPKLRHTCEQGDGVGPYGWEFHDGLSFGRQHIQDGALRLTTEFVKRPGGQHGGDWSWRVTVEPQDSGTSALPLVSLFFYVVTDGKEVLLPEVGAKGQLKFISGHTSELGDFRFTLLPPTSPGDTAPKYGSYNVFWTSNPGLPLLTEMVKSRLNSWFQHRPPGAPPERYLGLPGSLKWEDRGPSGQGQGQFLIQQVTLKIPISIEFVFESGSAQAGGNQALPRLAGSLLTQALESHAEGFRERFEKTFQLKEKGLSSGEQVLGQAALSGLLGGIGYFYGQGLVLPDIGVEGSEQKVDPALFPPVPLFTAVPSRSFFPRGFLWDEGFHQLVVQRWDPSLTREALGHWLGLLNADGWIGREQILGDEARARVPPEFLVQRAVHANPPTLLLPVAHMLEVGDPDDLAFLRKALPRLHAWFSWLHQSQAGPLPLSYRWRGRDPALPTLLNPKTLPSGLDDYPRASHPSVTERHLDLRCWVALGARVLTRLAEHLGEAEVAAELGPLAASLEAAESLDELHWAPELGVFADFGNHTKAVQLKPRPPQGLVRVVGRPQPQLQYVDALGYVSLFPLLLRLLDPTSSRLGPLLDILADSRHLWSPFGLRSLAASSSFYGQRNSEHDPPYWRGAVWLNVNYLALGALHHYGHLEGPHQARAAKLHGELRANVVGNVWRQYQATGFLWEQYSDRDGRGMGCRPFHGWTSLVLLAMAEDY
Summary of the method: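 Compound dilution series incubated 60 min at 37° C with recombinant His-tagged human glucosidase I ([…]), after which trisaccharide substrate analog was added for 90 min at 37° C. Reaction quenched with 1.5M Tris pH 8; D-glucose detected by Amplex Red fluorescence, 560/590 nm. 4-PL curve fit of percent inhibition gave IC50.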

[4] = molecular target: rat maltase (partially purified alpha-glucosidase from intestinal rat powder); experiment: Intestinal alpha-glucosidase assay, maltose substrate (Glucose GO Kit)
Summary of the method: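 Partially purified alpha-glucosidase from rat intestinal powder was preincubated 60 min at 37 °C with serial compound dilutions, then given maltose or sucrose and incubated 30 min at 37 °C.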

[5] = Glucosidase 1, read-out: Glu 1 IC50

Sequence of rat sucrase (partially purified alpha-glucosidase from intestinal rat powder) (P23739 whole entry): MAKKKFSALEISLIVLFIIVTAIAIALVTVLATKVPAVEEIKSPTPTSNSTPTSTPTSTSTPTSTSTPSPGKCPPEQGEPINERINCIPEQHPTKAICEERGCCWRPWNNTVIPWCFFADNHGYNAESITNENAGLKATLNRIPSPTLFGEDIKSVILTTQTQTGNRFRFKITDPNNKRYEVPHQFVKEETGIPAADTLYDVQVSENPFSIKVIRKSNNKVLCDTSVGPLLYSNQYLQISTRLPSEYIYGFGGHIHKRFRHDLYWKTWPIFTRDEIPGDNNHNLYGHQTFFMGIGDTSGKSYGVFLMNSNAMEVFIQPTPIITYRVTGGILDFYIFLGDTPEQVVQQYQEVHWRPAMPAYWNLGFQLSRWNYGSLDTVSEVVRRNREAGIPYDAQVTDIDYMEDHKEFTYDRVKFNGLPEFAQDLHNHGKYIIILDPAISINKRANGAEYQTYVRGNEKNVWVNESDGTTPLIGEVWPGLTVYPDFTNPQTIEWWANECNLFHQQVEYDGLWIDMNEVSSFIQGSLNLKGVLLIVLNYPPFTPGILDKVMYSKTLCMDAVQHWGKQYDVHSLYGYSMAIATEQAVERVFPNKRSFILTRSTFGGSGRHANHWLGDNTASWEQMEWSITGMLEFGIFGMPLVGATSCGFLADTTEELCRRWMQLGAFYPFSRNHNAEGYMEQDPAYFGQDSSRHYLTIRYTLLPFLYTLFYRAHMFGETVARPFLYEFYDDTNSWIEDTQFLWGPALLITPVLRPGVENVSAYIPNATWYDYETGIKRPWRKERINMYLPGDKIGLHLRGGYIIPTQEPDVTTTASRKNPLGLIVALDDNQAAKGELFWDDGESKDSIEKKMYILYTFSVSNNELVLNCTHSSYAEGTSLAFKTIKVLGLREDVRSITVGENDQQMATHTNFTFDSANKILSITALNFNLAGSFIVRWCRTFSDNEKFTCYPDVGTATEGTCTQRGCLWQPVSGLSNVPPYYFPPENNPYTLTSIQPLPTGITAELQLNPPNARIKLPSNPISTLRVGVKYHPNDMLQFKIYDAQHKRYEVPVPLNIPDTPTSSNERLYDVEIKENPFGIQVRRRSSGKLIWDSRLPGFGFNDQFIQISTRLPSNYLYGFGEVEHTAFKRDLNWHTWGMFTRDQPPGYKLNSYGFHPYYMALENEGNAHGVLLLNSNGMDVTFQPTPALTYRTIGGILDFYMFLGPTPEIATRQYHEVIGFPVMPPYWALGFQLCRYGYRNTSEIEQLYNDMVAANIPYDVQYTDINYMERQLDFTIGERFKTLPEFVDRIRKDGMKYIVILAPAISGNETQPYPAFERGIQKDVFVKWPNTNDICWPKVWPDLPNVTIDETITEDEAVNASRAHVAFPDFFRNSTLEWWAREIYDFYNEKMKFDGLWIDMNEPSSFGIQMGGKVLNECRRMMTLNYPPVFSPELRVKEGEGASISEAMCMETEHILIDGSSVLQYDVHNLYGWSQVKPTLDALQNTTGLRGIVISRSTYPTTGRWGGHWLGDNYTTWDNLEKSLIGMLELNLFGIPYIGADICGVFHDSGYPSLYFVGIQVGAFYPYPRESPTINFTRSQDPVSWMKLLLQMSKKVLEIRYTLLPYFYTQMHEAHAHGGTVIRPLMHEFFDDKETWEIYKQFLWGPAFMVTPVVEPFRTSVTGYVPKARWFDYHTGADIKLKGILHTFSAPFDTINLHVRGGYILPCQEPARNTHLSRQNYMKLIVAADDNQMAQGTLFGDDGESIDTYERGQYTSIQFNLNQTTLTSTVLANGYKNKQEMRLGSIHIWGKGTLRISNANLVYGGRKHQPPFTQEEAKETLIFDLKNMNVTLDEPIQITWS

SMILES | IC50 [1] | IC50 [2] | IC50 [3, 5] | IC50 [4] | IC50 [3]
COC(OC)c1cc(NCCCCCCN2C[C@H](O)[C@@H](O)[C@H](O)[C@H]2CO)cc(-c2ncccn2)c1 [Compound 1124, (2R,3R,4R,5S)-1-(6-{[3-(dimethoxymethyl)-5-(pyrimidin-2-yl)phenyl]amino}hexyl)-2-(hydroxymethyl)piperidine-3,4,5-triol] | 36 nM | 147 nM | 513 nM | 23 nM | 
OC[C@@H]1[C@@H](O)[C@H](O)[C@@H](O)CN1CCc1ccc(CCNc2cc(Cl)cc(-c3ncon3)c2)cc1 [Compound 1113, (2R,3R,4R,5S)-1-{2-[4-(2-{[3-chloro-5-(1,2,4-oxadiazol-3-yl)phenyl]amino}ethyl)phenyl]ethyl}-2-(hydroxymethyl)piperidine-3,4,5-triol] | 380 nM | 74 nM |  | 20 nM | 1010 nM
[N-]=[N+]=Nc1ccc(NCCc2nccc(CCN3C[C@H](O)[C@@H](O)[C@H](O)[C@H]3CO)n2)c([N+](=O)[O-])c1 [Compound 1188, (2R,3R,4R,5S)-1-[2-(2-{2-[(4-azido-2-nitrophenyl)amino]ethyl}pyrimidin-4-yl)ethyl]-2-(hydroxymethyl)piperidine-3,4,5-triol] | 838 nM | 783 nM | 762 nM | 164 nM | 
OC[C@@H]1[C@@H](O)[C@H](O)[C@@H](O)CN1CCCCCCNc1cc(-c2ncccn2)cc(C2CC2)c1 [Compound 1009, (2R,3R,4R,5S)-1-(6-{[3-cyclopropyl-5-(pyrimidin-2-yl)phenyl]amino}hexyl)-2-(hydroxymethyl)piperidine-3,4,5-triol] | 62 nM | 71 nM | 163 nM | 7 nM | 
COc1cc(NCCc2ccc(CCN3C[C@H](O)[C@@H](O)[C@H](O)[C@H]3CO)cc2)cc(C2=CCOCC2)c1 [Compound 1154, (2R,3R,4R,5S)-1-{2-[4-(2-{[3-(3,6-dihydro-2H-pyran-4-yl)-5-methoxyphenyl]amino}ethyl)phenyl]ethyl}-2-(hydroxymethyl)piperidine-3,4,5-triol] | 296 nM | 2880 nM | 919 nM | 624 nM | 
[N-]=[N+]=Nc1ccc(NCCc2cncc(CCN3C[C@H](O)[C@@H](O)[C@H](O)[C@H]3CO)n2)c([N+](=O)[O-])c1 [Compound 1187, (2R,3R,4R,5S)-1-[2-(6-{2-[(4-azido-2-nitrophenyl)amino]ethyl}pyrazin-2-yl)ethyl]-2-(hydroxymethyl)piperidine-3,4,5-triol] | 615 nM | 2050 nM |  | 1200 nM | 94 nM
O=Cc1cc(-c2ncccn2)ccc1NCCCCCCN1C[C@H](O)[C@@H](O)[C@H](O)[C@H]1CO [Compound 1184, 5-(pyrimidin-2-yl)-2-({6-[(2R,3R,4R,5S)-3,4,5-trihydroxy-2-(hydroxymethyl)piperidin-1-yl]hexyl}amino)benzaldehyde] | 48 nM | 65 nM | 84 nM | 6 nM | 
[N-]=[N+]=Nc1ccc(NCc2ccc(-c3ccc(CN4C[C@H](O)[C@@H](O)[C@H](O)[C@H]4CO)cc3)cc2)c([N+](=O)[O-])c1 [Compound 1166, (2R,3R,4R,5S)-1-[(4′-{[(4-azido-2-nitrophenyl)amino]methyl}-[1,1′-biphenyl]-4-yl)methyl]-2-(hydroxymethyl)piperidine-3,4,5-triol] | 1380 nM | 156 nM | 184 nM | < 1 nM | 
N#Cc1cc(NCc2cccc(CN3C[C@H](O)[C@@H](O)[C@H](O)[C@H]3CO)c2)cc(C2=COCCO2)c1 [Compound 1044, 3-(5,6-dihydro-1,4-dioxin-2-yl)-5-{[(3-{[(2R,3R,4R,5S)-3,4,5-trihydroxy-2-(hydroxymethyl)piperidin-1-yl]methyl}phenyl)methyl]amino}benzonitrile] | 1420 nM | < 1 nM |  | < 1 nM | 3 nM
Cc1cc(NCc2cccc(CN3C[C@H](O)[C@@H](O)[C@H](O)[C@H]3CO)n2)cc(-c2ccc[nH]2)c1 [Compound 1335, (2R,3R,4R,5S)-2-(hydroxymethyl)-1-{[6-({[3-methyl-5-(1H-pyrrol-2-yl)phenyl]amino}methyl)pyridin-2-yl]methyl}piperidine-3,4,5-triol] | 470 nM | 321 nM |  | 231 nM | 966 nM
OC[C@@H]1[C@@H](O)[C@H](O)[C@@H](O)CN1CCc1ccc(CCNc2cc(Cl)cc(-c3ncccn3)c2)cc1 [Compound 1162, (2R,3R,4R,5S)-1-{2-[4-(2-{[3-chloro-5-(pyrimidin-2-yl)phenyl]amino}ethyl)phenyl]ethyl}-2-(hydroxymethyl)piperidine-3,4,5-triol] | 62 nM | 476 nM | 508 nM | 138 nM | 
COc1cc(NCCCCCCN2C[C@H](O)[C@@H](O)[C@H](O)[C@H]2CO)cc(-c2cnccn2)c1 [Compound 1197, (2R,3R,4R,5S)-2-(hydroxymethyl)-1-(6-{[3-methoxy-5-(pyrazin-2-yl)phenyl]amino}hexyl)piperidine-3,4,5-triol] | 37 nM | 177 nM | 140 nM | 9 nM | 
OC[C@@H]1[C@@H](O)[C@H](O)[C@@H](O)CN1Cc1ccc(CNc2cc(-c3ncccn3)cc(C3CC3)c2)cc1 [Compound 1013, (2R,3R,4R,5S)-1-{[4-({[3-cyclopropyl-5-(pyrimidin-2-yl)phenyl]amino}methyl)phenyl]methyl}-2-(hydroxymethyl)piperidine-3,4,5-triol] | 254 nM | 26 nM | 53 nM | 5 nM | 
O=[N+]([O-])c1cc(N2CCOCC2)ccc1NCc1cccc(CN2C[C@H](O)[C@@H](O)[C@H](O)[C@H]2CO)c1 [Compound 1067, (2R,3R,4R,5S)-2-(hydroxymethyl)-1-{[3-({[4-(morpholin-4-yl)-2-nitrophenyl]amino}methyl)phenyl]methyl}piperidine-3,4,5-triol] | 426 nM | 80 nM |  | 81 nM | 99 nM
CC(C)(C)c1cc(NCCCCCCN2C[C@H](O)[C@@H](O)[C@H](O)[C@H]2CO)cc(-c2ncccn2)c1 [Compound 1151, (2R,3R,4R,5S)-1-(6-{[3-tert-butyl-5-(pyrimidin-2-yl)phenyl]amino}hexyl)-2-(hydroxymethyl)piperidine-3,4,5-triol] | 24 nM | < 1 nM | 99 nM | < 1 nM | 
COc1cc(NCCc2ccc(CCN3C[C@H](O)[C@@H](O)[C@H](O)[C@H]3CO)cc2)cc(-c2ccco2)c1 [Compound 1153, (2R,3R,4R,5S)-1-{2-[4-(2-{[3-(furan-2-yl)-5-methoxy-phenyl]amino}ethyl)phenyl]ethyl}-2-(hydroxymethyl)piperidine-3,4,5-triol] | 57 nM | 2500 nM | 1360 nM | 321 nM | 
[N-]=[N+]=Nc1ccc(NCC/C=C/CCN2C[C@H](O)[C@@H](O)[C@H](O)[C@H]2CO)c([N+](=O)[O-])c1 [Compound 1260, (2R,3R,4R,5S)-1-[(3E)-6-[(4-azido-2-nitrophenyl)amino]hex-3-en-1-yl]-2-(hydroxymethyl)piperidine-3,4,5-triol] | 44 nM | 29 nM |  | < 1 nM | 136 nM
N#Cc1cc(Cl)cc(NCCc2ccc(CCN3C[C@H](O)[C@@H](O)[C@H](O)[C@H]3CO)cc2)c1 [Compound 1134, 3-chloro-5-{[2-(4-{2-[(2R,3R,4R,5S)-3,4,5-trihydroxy-2-(hydroxymethyl)piperidin-1-yl]ethyl}phenyl)ethyl]amino}benzonitrile] | 167 nM | 259 nM | 640 nM | 130 nM | 
